Experimental data: the CheMixHub drug solubility set

Assay: xn = mol fraction of the nth substance listed, in the solute-free solvent

CC(C)OC(=O)C(C)NP(=O)(OCC1OC(n2ccc(=O)[nH]c2=O)C(C)(F)C1O)Oc1ccccc1 (stereo unspecified) + CCO + O
solubility (g/100 g solution)
Settings | 278.15 K | 283.15 K | 288.15 K | 293.15 K | 298.15 K | 303.15 K | 308.15 K | 313.15 K | 318.15 K
x2 = 0.04165 | 0.327 | 0.484 | 0.653 | 0.882 | 1.17 | 1.57 | 2.08 | 2.71 | 3.42
x2 = 0.08908 | 1.42 | 2.02 | 2.65 | 3.46 | 4.44 | 5.7 | 7.2 | 9.04 | 10.9
x2 = 0.1436 | 3.58 | 4.78 | 6.12 | 7.78 | 9.72 | 12.1 | 14.7 | 17.7 | 21
x2 = 0.2068 | 5.74 | 7.67 | 9.66 | 12 | 14.8 | 17.8 | 21.3 | 25.1 | 29
x2 = 0.2812 | 7.44 | 9.76 | 12.2 | 14.9 | 18.1 | 21.6 | 25.5 | 29.7 | 33.9
x2 = 0.3698 | 9.07 | 11.6 | 14.4 | 17.3 | 20.7 | 24.9 | 29 | 33.2 | 37.7
x2 = 0.4772 | 11 | 13.7 | 16.6 | 20.2 | 24.2 | 28.3 | 32.5 | 36.8 | 41.3
x2 = 0.6101 | 13.9 | 17 | 20.8 | 24.3 | 28.5 | 32.3 | 37.2 | 41.6 | 46.3
x2 = 0.7788 | 17.6 | 20.9 | 24.6 | 28.8 | 33.3 | 37.8 | 42.4 | 47 | 51.6

Cc1[nH]c(=O)c(C#N)cc1-c1ccncc1 + CCO + O
solubility (g/100 g solution)
Settings | 278.15 K | 283.15 K | 288.15 K | 293.15 K | 298.15 K | 303.15 K | 308.15 K | 313.15 K | 318.15 K | 323.15 K
x2 = 0.04165 | 0.000675 | 0.000813 | 0.000966 | 0.00114 | 0.00133 | 0.00153 | 0.00174 | 0.00198 | 0.00224 | 0.00254
x2 = 0.08908 | 0.000855 | 0.00103 | 0.00123 | 0.00144 | 0.00169 | 0.00194 | 0.00221 | 0.00251 | 0.00285 | 0.00321
x2 = 0.1436 | 0.00114 | 0.00138 | 0.00163 | 0.00192 | 0.00225 | 0.00258 | 0.00294 | 0.00333 | 0.00377 | 0.00426
x2 = 0.2068 | 0.00154 | 0.00186 | 0.00221 | 0.00259 | 0.00303 | 0.00348 | 0.00395 | 0.00447 | 0.00505 | 0.0057
x2 = 0.2812 | 0.00206 | 0.00239 | 0.00288 | 0.00338 | 0.0039 | 0.00453 | 0.00517 | 0.00586 | 0.00662 | 0.00754
x2 = 0.3698 | 0.00266 | 0.00322 | 0.00381 | 0.00446 | 0.00518 | 0.00596 | 0.00676 | 0.00763 | 0.0086 | 0.00968
x2 = 0.4772 | 0.00326 | 0.00385 | 0.00461 | 0.0054 | 0.00629 | 0.00717 | 0.00815 | 0.00921 | 0.0105 | 0.0119
x2 = 0.6101 | 0.00373 | 0.00451 | 0.0054 | 0.00637 | 0.00745 | 0.00844 | 0.00959 | 0.0108 | 0.0122 | 0.0138
x2 = 0.7788 | 0.00412 | 0.00503 | 0.00602 | 0.00705 | 0.00817 | 0.00928 | 0.0105 | 0.0119 | 0.0135 | 0.0153

Nc1cccc(S(=O)(=O)c2cccc(N)c2)c1 + CCO + O
solubility (g/100 g solution)
Settings | 283.15 K | 288.15 K | 293.15 K | 298.15 K | 303.15 K | 308.15 K | 313.15 K | 318.15 K | 323.15 K | 328.15 K
x2 = 0.04165 | 0.0709 | 0.0964 | 0.128 | 0.168 | 0.215 | 0.284 | 0.356 | 0.459 | 0.577 | 0.72
x2 = 0.08908 | 0.129 | 0.173 | 0.226 | 0.3 | 0.383 | 0.491 | 0.619 | 0.788 | 0.987 | 1.23
x2 = 0.1436 | 0.209 | 0.277 | 0.357 | 0.462 | 0.591 | 0.744 | 0.941 | 1.16 | 1.45 | 1.78
x2 = 0.2068 | 0.318 | 0.41 | 0.509 | 0.646 | 0.822 | 1.02 | 1.25 | 1.51 | 1.84 | 2.24
x2 = 0.2812 | 0.455 | 0.561 | 0.706 | 0.874 | 1.07 | 1.3 | 1.56 | 1.89 | 2.26 | 2.69
x2 = 0.3698 | 0.604 | 0.732 | 0.907 | 1.11 | 1.34 | 1.64 | 1.92 | 2.33 | 2.7 | 3.21
x2 = 0.4772 | 0.76 | 0.93 | 1.14 | 1.34 | 1.62 | 1.92 | 2.28 | 2.69 | 3.15 | 3.7
x2 = 0.6101 | 0.914 | 1.09 | 1.31 | 1.55 | 1.88 | 2.19 | 2.57 | 3.03 | 3.51 | 4.06
x2 = 0.7788 | 1.1 | 1.29 | 1.52 | 1.79 | 2.08 | 2.43 | 2.81 | 3.25 | 3.75 | 4.28

S=c1[nH]ncs1 + CCO + O
solubility (g/100 g solution)
Settings | 278.15 K | 283.15 K | 288.15 K | 293.15 K | 298.15 K | 303.15 K | 308.15 K | 313.15 K | 318.15 K | 323.15 K
x2 = 0.1 | 0.653 | 0.91 | 1.26 | 1.71 | 2.24 | 2.97 | 3.91 | 5.01 | 6.49 | 7.94
x2 = 0.2 | 1.93 | 2.6 | 3.27 | 4.16 | 5.3 | 6.67 | 8.34 | 10.5 | 12.8 | 15.2
x2 = 0.3 | 3.54 | 4.46 | 5.7 | 7.08 | 8.6 | 10.7 | 12.9 | 15.5 | 18.5 | 21.9
x2 = 0.4 | 5.21 | 6.58 | 8.06 | 9.53 | 11.3 | 13.6 | 16.1 | 18.9 | 22.3 | 26
x2 = 0.5 | 6.64 | 8 | 9.61 | 11.3 | 13.3 | 15.6 | 18.1 | 21.1 | 24.5 | 28.1
x2 = 0.6 | 7.53 | 8.92 | 10.7 | 12.4 | 14.4 | 16.5 | 19.2 | 22.3 | 25.4 | 28.5
x2 = 0.7 | 8.26 | 9.5 | 11.2 | 13.1 | 15 | 17.1 | 19.5 | 22.4 | 25.4 | 28
x2 = 0.8 | 8.41 | 10.1 | 11.6 | 13.3 | 15 | 17.2 | 19.5 | 22.1 | 25 | 27.6
x2 = 0.9 | 8.73 | 10.2 | 11.8 | 13.3 | 15.1 | 16.9 | 19.1 | 21.6 | 23.9 | 26.6
